# Results published in patent US20250090515A1, “1-Deoxynojirimycin To Mitigate Hepatic Ischemia- Reperfusion” (KING FAISAL UNIVERSITY, priority 2023, published 2025).
# What was measured:
# Format in all cases: in vivo, Wistar male rats
# H I/R-induced injury [1] = assay: Hepatic function biomarkers (serum ALT, AST, ALP, LDH) after hepatic ischemia-reperfusion; conditions: compared to H I/R animals
# Procedure: (§1) Wistar male rats (age: 6-8 weeks; weight: 200-230 g) were obtained from Experimental Animal Research Centre, King Saud University, Riyadh, K S A. The animals were acclimatized with standard laboratory food and water ad libitum in ventilated cages system (12 h light/dark cycles, 20.3-23.1° C.) then kept throughout the whole experiment under the same conditions.
# (§2) Rats were anesthetized with isoflurane with oxygen (2%, 0.5 L/h) throughout the whole surgery, under heat control and aseptic conditions. Animals' abdomen was shaved and sterilized, and a surgical incision (about 3 cm) from the pubic to the sternum was executed. The portal triad, comprising the hepatic artery, portal vein, and common bile duct, was clamped using a micro-vascular clamp for 60 min to prompt ischemia. Hepatic reperfusion was accompanied by releasing the micro-vascular clamp and permitted reperfusion for six hours. The sham-operated animals were subjected to all the procedures that occurred during H I/R, deprived of blood flow blockage.
# (§3) 1-Deoxynojirimycin hydrochloride (1-DNJ) was purchased from Merck (Merck & Co., USA, product number D 9305). 1-DNJ was administered by gavage orally after being suspended in 1% carboxymethyl cellulose (CMC) solution. 1-DNJ dose (50 and 100 mg/kg) selection was based on previous studies. A total of 30 Wistar rats were haphazardly assigned into five groups (six rats/group). The sham group in which animals were given vehicle (1% CMC) orally for two weeks and subjected to sham steps. 1-DNJ+Sham group in which rats were administered 1-DNJ (100 mg/kg/day) for two weeks and then subjected to sham steps. Third group, the H I/R group, in which rats were administered 1% CMC for two weeks and then hepatic ischemia for 60 min followed by 6 hours reperfusion was implemented. Finally, 1-DNJ 50+H I/R and 1-DNJ 100+H I/R groups in which rats were pretreated with 1-DNJ (50, 100 mg/kg/day) respectively orally for two weeks, then subjected to hepatic I/R surgical procedure.
# (§4) Once the reperfusion period was completed, animals' blood was obtained through the hearts, centrifuged at 4000×g for 15 min at 4° C., and stored at −20° C. to be utilized in the biochemical estimation of liver function tests, including ALT, AST, ALP, and LDH. Moreover, hepatic tissues were isolated, washed in cool PBS, and distributed in three portions. The first part was homogenized with PBS, centrifuged at 10,000×g for 15 min at 4° C., and consumed to evaluate oxidative stress and ELISA biomarkers. The second portion was stored at −20° C. for subsequent qRT-PCR and western blot analysis. The third part was fixed with 10% formalin buffered saline to estimate the histopathological variations as well as the immunohistochemical manifestation.
# (§5) One-way ANOVA followed by Tukey-Kramer as a post hoc test were executed for multiple comparisons between different experimental groups. p as a level of probability was set at 0.05, indicating the significance level. All statistical analyses were performed using Graph Pad software (version 8, CA, USA).
# Rat Alanine Aminotransferase (ALT) ELISA kit (ab285264), Aspartate Aminotransferase (AST) ELISA kit (ab263883), and Alkaline Phosphatase (ALP) colorimetric assay kit (ab83369), Lactate Dehydrogenase (LDH) colorimetric assay kit (ab102526) were obtained from Abcam (Boston, MA, USA) and utilized following the manufacturer's instructions.
# H I/R-induced injury [2] = assay: Hepatic oxidative stress biomarkers in hepatic tissue homogenate after hepatic ischemia-reperfusion; conditions: compared to H I/R animals
# Procedure: as §1, §2, §3, §4, §5
# Oxidative stress-related biomarkers, including antioxidant and lipid peroxidation enzymes such as CAT, SOD, GST, GSH, MDA, and NO contents, were monitored in the hepatic tissue homogenate. Malondialdehyde (MDA; ab238537), glutathione (GSH, ab65322), glutathione-s-transferase (GST, ab65326), nitric oxide (NO, ab272517) assay kits were purchased from Abeam Inc. (Cambridge, UK). Superoxide dismutase (SOD; MBS036924) and catalase (MBS726781) ELISA kits were obtained from My BioSource (San Diego, CA, USA). All the procedures were executed in accordance with the manufacturer's directions.
# H I/R-induced injury [3] = assay: Histopathological examination (H&E, Suzuki grading) of ischemic liver
# Procedure: as §1, §2
# 1-Deoxynojirimycin hydrochloride (1-DNJ) was purchased from Merck (Merck & Co., USA, product number D 9305). 1-DNJ was administered by gavage orally after being suspended in 1% carboxymethyl cellulose (CMC) solution. 1-DNJ dose (50 and 100 mg/kg) selection was based on previous studies. A total of 30 Wistar rats were haphazardly assigned into five groups (six rats/group). […]
# H I/R-induced injury [4] = assay: Apoptotic markers (caspase 3, caspase 9) ELISA after hepatic ischemia-reperfusion; conditions: compared to H I/R animals
# Procedure: as §1, §2, §3
# Once the reperfusion period was completed, animals' blood was obtained through the hearts, centrifuged at 4000×g for 15 min at 4° C., and stored at −20° C. to be utilized in the biochemical estimation of liver function tests, including ALT, AST, ALP, and LDH. Moreover, hepatic tissues were isolated, washed in cool PBS, and distributed in three portions. […]
# Inflammation markers including TNF-α (ab46070), […], IL-6 (ab100772) NFκB (ab133112) and IL-10 (ab214566), ELISA kits were obtained from Abcam Co., (Eugene, OR, USA). […] These markers were measured according to the manufacturer's instructions using a microplate reader SpectraMax i3X (Molecular devices San Jose, CA, USA).
# [5] = 1-DNJ 50 mg/kg/day orally for 2 weeks before H I/R
# [6] = 1-DNJ 100 mg/kg/day orally for 2 weeks before H I/R
compound,measurement,setting,value
"Cl.OC[C@H]1NC[C@H](O)[C@@H](O)[C@@H]1O [1-DNJ, 1-Deoxynojirimycin hydrochloride]",percentage reduction in ALP,H I/R-induced injury [1]; [5],29.75%
same,percentage reduction in ALT,H I/R-induced injury [1]; [5],22.26%
same,percentage reduction in AST,H I/R-induced injury [1]; [5],26.96%
same,percentage reduction in LDH,H I/R-induced injury [1]; [5],24.39%
same,percentage reduction in ALP,H I/R-induced injury [1]; [6],44.53%
same,percentage reduction in ALT,H I/R-induced injury [1]; [6],43.11%
same,percentage reduction in AST,H I/R-induced injury [1]; [6],41.65%
same,percentage reduction in LDH,H I/R-induced injury [1]; [6],48.63%
same,percentage elevation in CAT,H I/R-induced injury [2]; [5],114.24%
same,percentage elevation in GSH,H I/R-induced injury [2]; [5],130.82%
same,percentage elevation in GST,H I/R-induced injury [2]; [5],49.42%
same,percentage elevation in SOD,H I/R-induced injury [2]; [5],60.80%
same,percentage reduction in MDA,H I/R-induced injury [2]; [5],24.18%
same,percentage reduction in NO,H I/R-induced injury [2]; [5],40.77%
same,percentage elevation in CAT,H I/R-induced injury [2]; [6],161.09%
same,percentage elevation in GSH,H I/R-induced injury [2]; [6],194.64%
same,percentage elevation in GST,H I/R-induced injury [2]; [6],99.02%
same,percentage elevation in SOD,H I/R-induced injury [2]; [6],89.51%
same,percentage reduction in MDA,H I/R-induced injury [2]; [6],30.71%
same,percentage reduction in NO,H I/R-induced injury [2]; [6],55.05%
same,"histopathological changes by Suzuki scores (congestion, vacuolation, necrosis)","H I/R-induced injury [3]; 1-DNJ preconditioned animals (50 and 100 mg/kg/day orally, 2 weeks), related to H I/R animals",substantial reduction in hepatic congestion and hepatocellular vacuolation and necrosis
same,histopathological findings (H&E sections),"H I/R-induced injury [3]; 1-DNJ pretreated groups (50 and 100 mg/kg/day orally, 2 weeks) before H I/R","re-established hepatic parenchyma, less hepatocellular necrosis, fewer congested hepatic sinusoids, and portal vasculatures with slight vacuolation"
same,percentage reduction in caspase 3,H I/R-induced injury [4]; [5],27.62%
same,percentage reduction in caspase 9,H I/R-induced injury [4]; [5],20.09%
same,percentage reduction in caspase 3,H I/R-induced injury [4]; [6],41.23%
same,percentage reduction in caspase 9,H I/R-induced injury [4]; [6],24.86%
